According to US6221914A, “Sulfonamide bridging compounds that inhibit tryptase activity” (Array Biopharma Inc., priority 1998, dated 2001):
pKi: −log10 of the molar value.

Assays:
Format in all cases: biochemical
r-tissue kallikrein = r-tissue kallikrein (Homo sapiens, UniProt P06870); assay: Ki determination, r-tissue kallikrein (DL-Val-Leu-Arg-pNA); conditions: 50 mM Tris-HCl, pH 7.8, 200 mM NaCl, 0.05% BSA; read-out: Experimentally Determined Ki, Tissue Kallikrein
Description: (§1) Protease inhibition was assayed according to published procedures with minor modifications using various proteases and specific chromogenic peptide p-nitroanilide substrates. Assays were performed in Costar ultra-low cluster 96-well microtiter plate (Costar Corning Corp., Cambridge Mass.). Each protease was incubated with various concentrations of the test compound for 15 min. at 37° C. or as otherwise indicated, in specific assay buffer, and the residual activity was then measured by addition of the substrate. p-Nitroaniline produced by the proteolysis was determined by measuring the change in absorbance at 405 nm on a SpectraMAX 340 plate reader (Molecular devices, Sunnyvale, Calif.).
(§2) 1. The inhibition constant, Ki is calculated from individual data points using the equation for a tight-binding inhibitor (See Beith, "Proteinase Inhibitors-Proceedings of 2nd Int. Res. Conference", Fritz, et al. eds, New York, p.4463-4469 (1974)):
(§3) vi /vo [((Ki '+[I]+[E]o)^2 -4 [I]o
(§4) [E]o)^1/2 (Ki '+[I]o -[E]o)]/2[E]o
(§5) where Ki ' is apparent inhibition constant; vi and vo are the inhibited and uninhibited rates, respectively; [I]o and [E]o are the total concentrations of inhibitor and enzyme, respectively.
(§6) [note: [E]o is determined by active site titration of enzyme]
(§7) The Ki values are obtained by correcting Ki ' values for the effect of substrate concentration according to: [formula]
(§8) 2. Other inhibition data (Ki >>[E]o), the Ki is calculated from using the equations for a competitive inhibitor: [formula]
(§9) I. Human Plasma and r-Tissue Kallikrein
(§10) Human plasma and r-tissue kallikrein activity were determined in 50 mM Tris-HCl, pH 7.8, 200 mM NaCl, 0.05% BSA by using H-D-Prolyl-Phe-Arg-pNA and DL-Val-Leu-Arg-pNA, respectively (See Lottenberg, et al., Meth. Enzymol. 80, 341-361 (1981)).
(§11) The inhibition constant (Ki) of the test compounds against each proteolytic enzyme was determined according to Zitnik et al., Biochem. Biophys. Res. Commun. 232, 687-697 (1997)).

Human plasma factor Xa = molecular target: T1, Human plasma factor Xa (Homo sapiens, UniProt P00742); assay: Ki determination, human plasma factor Xa (N-Benzoyl-Ile-Glu-Gly-Arg-pNA); conditions: 50 mM Tris-HCl, pH 7.8, 200 mM NaCl, 0.05% BSA; read-out: Experimentally Determined Ki, Factor Xa
T1 construct: from tissue; host or cells: human plasma
T1 sequence (P00742 235-488 limits assumed): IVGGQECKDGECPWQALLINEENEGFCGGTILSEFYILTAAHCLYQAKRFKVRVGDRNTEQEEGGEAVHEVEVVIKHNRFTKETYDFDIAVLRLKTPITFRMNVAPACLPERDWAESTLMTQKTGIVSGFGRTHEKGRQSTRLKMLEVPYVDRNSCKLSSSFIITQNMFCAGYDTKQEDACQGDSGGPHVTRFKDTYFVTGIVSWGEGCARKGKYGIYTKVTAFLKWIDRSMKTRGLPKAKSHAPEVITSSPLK
T1 sequence (P00742 41-179 partner limits assumed): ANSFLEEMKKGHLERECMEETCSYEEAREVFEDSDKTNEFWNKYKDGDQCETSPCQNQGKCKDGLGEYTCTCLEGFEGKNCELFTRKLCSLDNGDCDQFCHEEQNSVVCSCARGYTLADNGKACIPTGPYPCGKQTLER
Description: as §1, §2, §3, §4, §5, §6, §7, §8
Human plasma factor Xa activity was determined by using N-Benzoyl-Ile-Glu-Gly-Arg-pNA in 50 mM Tris-HCl, pH 7.8, 200 mM NaCl, 0.05% BSA (See Lottenberg, et al. Meth. Enzymol. 80, 341-361 (1981)).
as §11

[1] = molecular target: T2, Human Neutrophil Cathepsin G (Homo sapiens, UniProt P08311); assay: Ki determination, human neutrophil cathepsin G (N-Suc-Ala-Ala-Pro-Phe-pNA); conditions: 625 mM Tris-HCl, pH 7.5, 2.5 mM MgCl2, 0.125% Brij 35; read-out: Experimentally Determined Ki, Cathepsin G
T2 construct: from tissue; host or cells: human neutrophils
T2 sequence (P08311 21-255): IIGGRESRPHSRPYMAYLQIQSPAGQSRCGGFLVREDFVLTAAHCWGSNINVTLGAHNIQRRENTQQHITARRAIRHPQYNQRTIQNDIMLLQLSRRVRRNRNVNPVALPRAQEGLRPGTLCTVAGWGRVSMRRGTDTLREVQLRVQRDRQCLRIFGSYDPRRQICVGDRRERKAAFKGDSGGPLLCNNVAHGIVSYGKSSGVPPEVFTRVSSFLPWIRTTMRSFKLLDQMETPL
Description: as §1, §2, §3, §4, §5, §6, §7, §8
Human Neutrophil Cathepsin G activity was determined by using N-Suc-Ala-Ala-Pro-Phe-pNA in 625 mM Tris-HCl, pH 7.5, 2.5 mM MgCl2, 0.125% Brij 35 (See Groutas et al., Arch. Biochem. Biophys. 294, 144-146 (1992)).
as §11

[2] = molecular target: T3, Bovine pancreatic Trypsin (Bos taurus, UniProt P00760); assay: Ki determination, bovine pancreatic trypsin (N-a-Benzoyl-L-Arg-pNA); conditions: 50 mM Tris-HCl, pH 8.2, 20 mM CaCl2; read-out: Experimentally Determined Ki, Trypsin
T3 construct: from tissue; host or cells: bovine pancreas
T3 sequence (P00760 24-246): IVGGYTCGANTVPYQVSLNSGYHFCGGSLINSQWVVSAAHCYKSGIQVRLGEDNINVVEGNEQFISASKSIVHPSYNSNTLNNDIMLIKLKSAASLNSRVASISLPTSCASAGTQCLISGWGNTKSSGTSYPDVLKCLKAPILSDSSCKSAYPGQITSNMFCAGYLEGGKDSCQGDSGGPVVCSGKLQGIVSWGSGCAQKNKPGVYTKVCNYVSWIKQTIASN
Description: as §1, §2, §3, §4, §5, §6, §7, §8
Bovine pancreatic Trypsin (TPCK-treated) activity was determined by using N-a-Benzoyl-L-Arg-pNA in 50 mM Tris-HCl, pH 8.2, 20 mM CaCl2 (See Somorin, et al., J. Biochem. 85, 157-162 (1979)).
as §11

Human plasma plasmin = molecular target: T4, Human plasma plasmin (Homo sapiens, UniProt P00747); assay: Ki determination, human plasma plasmin (Tosyl-Gly-Pro-Lys-pNA); conditions: 100 mM Tris-HCl, pH 7.4, 100 mM NaCl, 0.05% Triton X-100; read-out: Experimentally Determined Ki, Plasmin
T4 construct: from tissue; host or cells: human plasma
T4 sequence (P00747 581-810 limits assumed): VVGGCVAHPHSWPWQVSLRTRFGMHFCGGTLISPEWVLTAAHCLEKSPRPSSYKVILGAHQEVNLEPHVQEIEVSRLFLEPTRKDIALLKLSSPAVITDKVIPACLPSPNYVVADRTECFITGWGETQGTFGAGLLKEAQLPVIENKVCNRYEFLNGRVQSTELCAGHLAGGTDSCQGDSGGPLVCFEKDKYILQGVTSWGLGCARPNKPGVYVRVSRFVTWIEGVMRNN
T4 sequence (P00747 97-580 partner limits assumed): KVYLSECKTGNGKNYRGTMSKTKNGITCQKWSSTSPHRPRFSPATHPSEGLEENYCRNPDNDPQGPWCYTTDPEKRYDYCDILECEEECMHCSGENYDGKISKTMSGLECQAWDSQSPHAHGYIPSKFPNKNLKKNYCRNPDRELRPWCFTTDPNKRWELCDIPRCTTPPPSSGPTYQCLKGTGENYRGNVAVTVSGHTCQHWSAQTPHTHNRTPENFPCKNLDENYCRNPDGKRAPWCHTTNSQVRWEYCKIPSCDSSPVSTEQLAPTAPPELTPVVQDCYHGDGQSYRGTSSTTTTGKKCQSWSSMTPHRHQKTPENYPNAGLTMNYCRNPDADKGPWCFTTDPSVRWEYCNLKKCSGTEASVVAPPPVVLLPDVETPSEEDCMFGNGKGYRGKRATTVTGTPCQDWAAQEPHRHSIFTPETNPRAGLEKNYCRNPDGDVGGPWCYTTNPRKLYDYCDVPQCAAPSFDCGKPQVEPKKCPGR
Description: as §1, §2, §3, §4, §5, §6, §7, §8
Human plasma plasmin activity was determined by using Tosyl-Gly-Pro-Lys-pNAin 100 mM Tris-HCl, pH 7.4, 100 mM NaCl, 0.05% Triton X-100 (See Lottenberg, et al., Meth. Enzymol. 80, 341-361 (1981)).
as §11

[3] = molecular target: T5, Human Neutrophil elastase (Homo sapiens, UniProt P08246); assay: Ki determination, human neutrophil elastase (pyroGlu-Pro-Val-pNA); conditions: 100 mM Tris-HCl, pH 8.3, 0.96 M NaCl, 1% BSA; read-out: Experimentally Determined Ki, Elastase
T5 construct: from tissue; host or cells: human neutrophils
T5 sequence (P08246 30-267): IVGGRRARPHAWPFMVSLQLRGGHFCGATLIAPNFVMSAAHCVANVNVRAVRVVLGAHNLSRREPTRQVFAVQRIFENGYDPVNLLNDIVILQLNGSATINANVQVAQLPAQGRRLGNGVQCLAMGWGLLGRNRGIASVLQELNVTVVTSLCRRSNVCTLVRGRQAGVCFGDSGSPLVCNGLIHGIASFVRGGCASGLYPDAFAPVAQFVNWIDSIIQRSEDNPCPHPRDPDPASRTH
Description: as §1, §2, §3, §4, §5, §6, §7, §8
Human Neutrophil elastase activity was determined by using pyroGlu-Pro-Val-pNA in 100 mM Tris-HCl, pH 8.3, 0.96 M NaCl, 1% BSA (See Kramps, et al. Scand. J. Clin. Lab. Invest. 43, 427-432 (1983)).
as §11

Human plasma kallikrein = molecular target: T6, Human plasma kallikrein (Homo sapiens, UniProt P03952); assay: Ki determination, human plasma kallikrein (H-D-Prolyl-Phe-Arg-pNA); conditions: 50 mM Tris-HCl, pH 7.8, 200 mM NaCl, 0.05% BSA; read-out: Experimentally Determined Ki, Plasma Kallikrein
T6 construct: from tissue; host or cells: human plasma
T6 sequence (P03952 391-638 limits assumed): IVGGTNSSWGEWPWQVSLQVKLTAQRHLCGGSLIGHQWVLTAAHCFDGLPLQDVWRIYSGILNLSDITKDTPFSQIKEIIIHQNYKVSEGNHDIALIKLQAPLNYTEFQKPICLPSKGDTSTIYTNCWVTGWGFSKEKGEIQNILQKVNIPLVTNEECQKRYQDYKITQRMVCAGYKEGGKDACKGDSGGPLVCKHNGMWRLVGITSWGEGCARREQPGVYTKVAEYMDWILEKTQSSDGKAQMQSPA
T6 sequence (P03952 20-390 partner limits assumed): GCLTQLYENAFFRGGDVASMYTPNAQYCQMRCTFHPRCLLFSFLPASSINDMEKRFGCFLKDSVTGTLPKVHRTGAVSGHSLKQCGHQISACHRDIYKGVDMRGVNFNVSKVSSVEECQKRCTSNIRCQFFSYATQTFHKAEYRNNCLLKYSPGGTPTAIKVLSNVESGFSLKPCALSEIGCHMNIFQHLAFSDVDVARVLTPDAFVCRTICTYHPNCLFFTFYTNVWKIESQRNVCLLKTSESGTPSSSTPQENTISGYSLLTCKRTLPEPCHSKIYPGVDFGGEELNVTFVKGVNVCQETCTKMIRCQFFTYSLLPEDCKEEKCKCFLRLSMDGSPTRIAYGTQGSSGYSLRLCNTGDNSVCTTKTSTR
Description: as §1, §2, §3, §4, §5, §6, §7, §8, §9, §10, §11

Chain of r-tissue kallikrein (P06870 25-262): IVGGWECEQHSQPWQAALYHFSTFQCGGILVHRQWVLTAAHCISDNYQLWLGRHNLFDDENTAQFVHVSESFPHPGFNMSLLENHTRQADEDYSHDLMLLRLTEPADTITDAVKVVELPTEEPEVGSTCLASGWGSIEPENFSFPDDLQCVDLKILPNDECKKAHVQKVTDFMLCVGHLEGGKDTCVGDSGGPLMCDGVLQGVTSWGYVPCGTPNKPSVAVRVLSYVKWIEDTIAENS

Row | SMILES | pKi (r-tissue kallikrein) | pKi (Human plasma factor Xa) | pKi [1] | pKi [2] | pKi (Human plasma plasmin) | pKi [3] | pKi (Human plasma kallikrein)
1 | N=C(N)c1cccc(S(=O)(=O)NCc2ccc(OCCCCOc3ccc(CNS(=O)(=O)c4cccc(C(=N)N)c4)cc3)cc2)c1 [Example 47, 1,4-Bis-{4-[(3-carbamimidoyl-benzenesulfonylamino)-methyl]-phenoxy}-butane] | < 4.00 | 5.54 | < 4.00 | 5.74 | 7.22 | < 4.00 | 5.60
2 | CN(Cc1ccc(OCCCOc2ccc(CN(C)S(=O)(=O)c3cccc(C(=N)N)c3)cc2)cc1)S(=O)(=O)c1cccc(C(=N)N)c1 [Example 68, 1,3-Bis-{4-[(3-carbamimidoyl-benzenesulfonyl-[N-methyl]-amino)-methyl]-phenoxy}-propane] | < 4.00 | 4.70 | < 4.00 | 5.49 | 5.00 | < 4.00 | 5.37
3 | N=C(N)c1cccc(S(=O)(=O)NCc2ccc(OCCCOc3ccc(CNS(=O)(=O)c4cccc(C(=N)N)c4)cc3)cc2)c1 [Example 49, 3,1-Bis-{4-[(3-carbamimidoyl-benzenesulfonylamino)-methyl]-phenoxy}-propane] | < 4.00 | 5.13 | < 4.00 | 5.55 | 6.13 | < 4.00 | 5.22
4 | N=C(N)c1ccc2[nH]c(CC(=O)NCc3ccc(OCCCCOc4ccc(CNC(=O)Cc5nc6cc(C(=N)N)ccc6[nH]5)cc4)cc3)nc2c1 [Example 109] | < 4.00 | 4.40 | < 4.00 | 4.94 | 6.96 | < 4.00 | 5.60
5 | N=C(N)c1ccc(C(=O)NCc2ccc(OCCCCCOc3ccc(CNC(=O)c4ccc(C(=N)N)cc4)cc3)cc2)cc1 [Example 54, 1,5-Bis-{4-[(4-carbamimidoyl-benzenecarbonylamino)-methyl]-phenoxy}-pentane] | < 4.00 | < 4.00 | < 4.00 | 6.04 | 5.39 | < 4.00 | 4.80
6 | N=C(N)c1ccc2[nH]c(CC(=O)NCc3ccc(OCCCCCOc4ccc(CNC(=O)Cc5nc6cc(C(=N)N)ccc6[nH]5)cc4)cc3)nc2c1 [Example 108] | < 4.00 | 4.72 | < 4.00 | 5.44 | 5.85 | < 4.00 | 5.37

Other lines, results leading:

Row | pKi (r-tissue kallikrein) | pKi (Human plasma factor Xa) | pKi [1] | pKi [2] | pKi (Human plasma plasmin) | pKi [3] | pKi (Human plasma kallikrein) | SMILES
7 | < 4.00 | 5.66 | < 4.00 | 5.96 | 5.28 | < 4.00 | 5.77 | N=C(N)c1ccc(C(=O)NCc2ccc(OCCCOc3ccc(CNC(=O)c4cccc(C(=N)N)c4)cc3)cc2)cc1 [Example 85, 4-Carbamimidoyl-N-[4-(3-{4-[(3-carbamimidoyl-benzoylamino)-methyl]-phenoxy}-propoxy)-benzyl]-benzamide]
8 | < 4.00 | 5.59 | < 4.00 | 5.66 | 4.34 | < 4.00 | 4.62 | N=C(N)c1cccc(C(=O)NCc2ccc(OCCOc3ccc(CNC(=O)c4cccc(C(=N)N)c4)cc3)cc2)c1 [Example 65, 1,2-Bis-{4-[(3-carbamimidoyl-benzoylamino)-methyl]-phenoxy}-ethane]
9 | < 4.00 | 4.57 | < 4.00 | 5.32 | 5.68 | < 4.00 | 4.92 | N=C(N)c1ccc2[nH]c(CC(=O)NCc3ccc(OCCCOc4ccc(CNC(=O)Cc5nc6cc(C(=N)N)ccc6[nH]5)cc4)cc3)nc2c1 [Example 107, 2-(5-Carbamimidoyl-1H-benzoimidazol-2-yl)-N-{4,-[3-(4-{2-(5-carbamimidoyl-1H-benzoimidazol-2-yl)acetylaminol-methyl}-phenoxy)-propoxy]-benzyl}-acetamide]
10 | < 4.00 | < 4.00 | < 4.00 | 6.82 | 6.13 | < 4.00 | < 4.00 | N=C(N)c1ccc2cc(C(=O)NCc3ccc(OCCOc4ccc(CNC(=O)c5ccc6cc(C(=N)N)ccc6c5)cc4)cc3)ccc2c1 [Example 100, 1,2-Bis-{4-[(6-carbamimidoylnaphthalene-2-carbonylamino)-methyl]-phenoxy}-ethane]
11 | < 4.00 | 4.46 | < 4.00 | 5.62 | 4.94 | < 4.00 | 5.54 | N=C(N)c1ccc(C(=O)NCc2ccc(OCCCOc3ccc(CNC(=O)c4ccc(C(=N)N)cc4)cc3)cc2)cc1 [Example 62, 1,3-Bis-{4-[(4-carbamimidoyl-benzoylamino)-methyl]-phenoxy}-propane]
12 | 4.85 | 4.82 | < 4.00 | 5.82 | 5.17 | < 4.00 | 5.41 | N=C(N)c1ccc(C(=O)NCc2ccc(OCC3(COc4ccc(CNC(=O)c5ccc(C(=N)N)cc5)cc4)CCC3)cc2)cc1 [Example 93, 1,1-Bis-{4-[(4-carbamimidoyl-benzoyl-amino)-methyl]-phenoxy-methyl}-cyclobutane]
13 | < 4.00 | 4.45 | < 4.00 | 5.85 | 5.19 | < 4.00 | 5.14 | N=C(N)c1ccc(C(=O)NCc2ccc(OCCOc3ccc(CNC(=O)c4ccc(C(=N)N)cc4)cc3)cc2)cc1 [Example 64, 1,2-Bis-{4-[(4-carbamimidoyl-benzoylamino)-methyl]-phenoxy}-ethane]
